ChEMBL document CHEMBL4033689, “Potential inhibitors of human carbonic anhydrase isozymes I and II: Design, synthesis and docking studies of new 1,3,4-thiadiazole derivatives” (Bioorg Med Chem, 2017)

Each molecule was assayed against Carbonic anhydrase 2 (Homo sapiens, UniProt P00918) (assay: Inhibition of carbonic anhydrase-2 in […] assessed as reduction in H+ release using CO2 as substrate by bromine thymol blue indicator based assay).

IC50, Not Active:
O=C(CSc1nnc(Nc2ccccc2)s1)N/N=C/c1ccc(-c2ccc(Cl)c(Cl)c2)o1, O=C(CSc1nnc(Nc2ccccc2)s1)N/N=C/c1ccc(-c2ccc([N+](=O)[O-])cc2)o1, O=C(CSc1nnc(Nc2ccccc2)s1)N/N=C/c1ccc(-c2ccc(Cl)cc2[N+](=O)[O-])o1
